Key:
[1] = system: spermidine/spermine N^1-acetyltransferase (SSAT); experiment: Polyamine enzyme activity in treated melanoma cells: SSAT induction; format: cell-based, human; settings: SK-MEL-28 cells, 24 hours
Experimental: MALME-3M human melanoma cells were cultured as described in Example 1 and treated with 10 μM DENSPM or 10 μM spermine (SPM) as described in Example 4. SK-MEL-28 cells were also cultured as described in Example 1 and treated with 10 μM DENSPM as describe in Example 4. Untreated cells were used as a control.
After treatment with DENSPM or spermine, biochemical parameters including polyamine enzymes activity, polyamine pools and analog accumulation were monitored as described by Kramer et al, J. Biol. Chem., 270:2124-32 (1995) and Kramer et al., Cancer Res., 57:5521-5527 (1997). Polyamine enzyme activity was monitored for ornithine […] (ODC); S-adenosylmethionine decarboxylase (SAMDC); and spermidine/spermine N^1-acetyltransferase (SSAT). Polyamine pools was monitored for putrescine (Put); spermidine (Spd); and spermine (Spm).
Enzyme activity and polyamine pools were measured as described in Example 5.

[2] = system: cell cycle regulatory proteins (p53, p21, p16, p27); experiment: Western blot of cell cycle regulatory proteins in SK-MEL-28 cells; format: cell-based, human; settings: SK-MEL-28, 10 μM
Experimental: MALME-3M and SK-MEL-28 cells cultured as described in Example 4 were treated with 10 μM DENSPM for 0 to 48 hours. Western blot analysis of cell cycle regulatory proteins, including p53, p21, p27, ppRb, pRb, cyclin D1 and PCNA was performed following the procedure described by Fogel-Petrovic et al. in Molec. Pharm, 52:69-74 (1997); and Biochemistry, 35:14436-14444 (1996). Antibodies used for detecting the proteins were obtained commercially as follows: p53 from Santa Cruz Biotechnology, Inc. (Santa Cruz, Calif.); PCNA and Cyclin D1 from Oncogene Research Products (Cambridge, Mass.); Rb and p21 from PharMigen (San Diego, Calif.); p27 from Transduction labs (Lexington, Ky.) and β-actin (used to correct for variations in loading) from Sigma Chemical Co. (St. Louis, Mo.). Western blot analysis of each of these proteins was performed at least three times.
The effects of 10 μM DENSPM on MALME-3M and SK-MEL-28 cell growth and cell cycle regulatory proteins were determined as described in Examples 2 and 3, respectively. Panel A is a comparison of the effects of DENSPM on cell growth. Panel B is a comparison of cell cycle regulatory proteins. […] In contrast, p16 was not detectable in MALME-3M cells. Data is representative of at least two experiments.

CCNCCCNCCCNCCCNCC [DENSPM, N^1,N^11-diethylnorspermine]
SSAT activity [1]: 31,920 pmol/min/mg | Enzyme Activities, SSAT ([1]; Table 4): 31920 pmol/min/mg protein | cdk inhibitors p16 and p27 [2]: not increased | p21 protein induction with treatment [2]: not induced | induction of p53 ([2]; 24 hours): no induction
